From ChEMBL document CHEMBL3885881, “DrugMatrix”

Species on record: Rattus norvegicus
Experiment: DrugMatrix - Regimen: Daily Repeat
Assay type: toxicity, organism-based, Sprague-Dawley
Set-up: regimen Daily Repeat, gender Male, age 6-8 weeks
Settings: in vivo, po, route oral GAVAGE, […]; for ABSOLUTE BASOPHIL / ABSOLUTE EOSINOPHIL / ABSOLUTE LYMPHOCYTE / ABSOLUTE MONOCYTE / ABSOLUTE SEGMENTED NEUTROPHIL / BASOPHIL / EOSINOPHIL / ERYTHROCYTE COUNT / HEMATOCRIT / HEMOGLOBIN / LEUKOCYTE COUNT / LYMPHOCYTE / MEAN CORPUSCULAR HEMOGLOBIN / MEAN CORPUSCULAR HEMOGLOBIN CONCENTRATION / MEAN CORPUSCULAR VOLUME / MONOCYTE / NEUTROPHIL / NUCLEATED RED BLOOD CELLS / PLATELET COUNT: tissue Blood; for ALANINE AMINOTRANSFERASE / ALBUMIN / ALKALINE PHOSPHATASE / ASPARTATE AMINOTRANSFERASE / BLOOD UREA NITROGEN / CARBON DIOXIDE / CHLORIDE / CHOLESTEROL / CREATINE PHOSPHOKINASE / CREATININE / GLUCOSE / LACTATE DEHYDROGENASE / LIPASE / PHOSPHORUS / POTASSIUM / SODIUM / TOTAL BILIRUBIN / URIC ACID / TOTAL PROTEIN: tissue Plasma
[1] = 0.3 mg/kg, 120 h, dose level Low, time 5 day
[2] = 150 mg/kg, 72 h, dose level High, time 3 day
[3] = 150 mg/kg, 120 h, dose level High, time 5 day

C[C@]12CC[C@@H]3c4ccc(O)cc4CC[C@H]3[C@@H]1CC[C@@H]2O [ESTRADIOL]
ABSOLUTE BASOPHIL [1]: 0 CELLS/uL
ABSOLUTE EOSINOPHIL [1]: 0 CELLS/uL
ABSOLUTE LYMPHOCYTE [1]: 8421.33 CELLS/uL
ABSOLUTE MONOCYTE [1]: 178.67 CELLS/uL
ABSOLUTE SEGMENTED NEUTROPHIL [1]: 333.33 CELLS/uL
BASOPHIL [1]: 0%
EOSINOPHIL [1]: 0%
ERYTHROCYTE COUNT [1]: 5.67 x10E6/uL
HEMATOCRIT [1]: 36.43%
HEMOGLOBIN [1]: 14.13 G/DL
LEUKOCYTE COUNT [1]: 8.93 x10E3/uL
LYMPHOCYTE [1]: 94.33%
MEAN CORPUSCULAR HEMOGLOBIN [1]: 24.93 pg
MEAN CORPUSCULAR HEMOGLOBIN CONCENTRATION [1]: 38.77 G/DL
MEAN CORPUSCULAR VOLUME [1]: 64.2 fL
MONOCYTE [1]: 2%
NEUTROPHIL [1]: 3.67%
NUCLEATED RED BLOOD CELLS [1]: 0 /100WBC
PLATELET COUNT [1]: 1136.67 x10E3/uL
ALANINE AMINOTRANSFERASE [1]: 62 u/L
ALBUMIN [1]: 4.23 G/DL
ALKALINE PHOSPHATASE [1]: 381.67 u/L
ASPARTATE AMINOTRANSFERASE [1]: 80.33 u/L
BLOOD UREA NITROGEN [1]: 11 mg/dL
CARBON DIOXIDE [1]: 31.67 mmol/L
CHLORIDE [1]: 97 MEQ/L
CHOLESTEROL [1]: 52.67 mg/dL
CREATINE PHOSPHOKINASE [1]: 324.67 u/L
CREATININE [1]: 0.15 mg/dL
GLUCOSE [1]: 162.67 mg/dL
LACTATE DEHYDROGENASE [1]: 166.67 u/L
LIPASE [1]: 10.33 u/L
PHOSPHORUS [1]: 9.63 mg/dL
POTASSIUM [1]: 5.76 MEQ/L
SODIUM [1]: 143 MEQ/L
TOTAL BILIRUBIN [1]: 0.2 mg/dL
URIC ACID [1]: 0.43 mg/dL
ABSOLUTE BASOPHIL [2]: 0 CELLS/uL
ABSOLUTE EOSINOPHIL [2]: 0 CELLS/uL
ABSOLUTE LYMPHOCYTE [2]: 6738.33 CELLS/uL
ABSOLUTE MONOCYTE [2]: 100.67 CELLS/uL
ABSOLUTE SEGMENTED NEUTROPHIL [2]: 527.67 CELLS/uL
BASOPHIL [2]: 0%
EOSINOPHIL [2]: 0%
ERYTHROCYTE COUNT [2]: 5.96 x10E6/uL
HEMATOCRIT [2]: 36.23%
HEMOGLOBIN [2]: 13.83 G/DL
LEUKOCYTE COUNT [2]: 7.37 x10E3/uL
LYMPHOCYTE [2]: 91.67%
MEAN CORPUSCULAR HEMOGLOBIN [2]: 23.37 pg
MEAN CORPUSCULAR HEMOGLOBIN CONCENTRATION [2]: 38.27 G/DL
MEAN CORPUSCULAR VOLUME [2]: 61 fL
MONOCYTE [2]: 1.33%
NEUTROPHIL [2]: 7%
NUCLEATED RED BLOOD CELLS [2]: 0 /100WBC
PLATELET COUNT [2]: 934 x10E3/uL
ALANINE AMINOTRANSFERASE [2]: 64.33 u/L
ALBUMIN [2]: 3.8 G/DL
ALKALINE PHOSPHATASE [2]: 760.67 u/L
ASPARTATE AMINOTRANSFERASE [2]: 90 u/L
BLOOD UREA NITROGEN [2]: 10 mg/dL
CARBON DIOXIDE [2]: 33 mmol/L
CHLORIDE [2]: 100 MEQ/L
CHOLESTEROL [2]: 22.67 mg/dL
CREATINE PHOSPHOKINASE [2]: 373.33 u/L
CREATININE [2]: 0.22 mg/dL
GLUCOSE [2]: 140.33 mg/dL
LACTATE DEHYDROGENASE [2]: 223.67 u/L
LIPASE [2]: 12.33 u/L
PHOSPHORUS [2]: 8.83 mg/dL
SODIUM [2]: 145.57 MEQ/L
TOTAL BILIRUBIN [2]: 0.23 mg/dL
TOTAL PROTEIN [2]: 5.87 G/DL
URIC ACID [2]: 0.3 mg/dL
ABSOLUTE BASOPHIL [3]: 0 CELLS/uL
ABSOLUTE EOSINOPHIL [3]: 0 CELLS/uL
ABSOLUTE LYMPHOCYTE [3]: 9738.33 CELLS/uL
ABSOLUTE MONOCYTE [3]: 202.33 CELLS/uL
ABSOLUTE SEGMENTED NEUTROPHIL [3]: 759.33 CELLS/uL
BASOPHIL [3]: 0%
EOSINOPHIL [3]: 0%
ERYTHROCYTE COUNT [3]: 6.23 x10E6/uL
HEMATOCRIT [3]: 39.2%
HEMOGLOBIN [3]: 14.6 G/DL
LEUKOCYTE COUNT [3]: 10.7 x10E3/uL
LYMPHOCYTE [3]: 91%
MEAN CORPUSCULAR HEMOGLOBIN [3]: 23.43 pg
MEAN CORPUSCULAR HEMOGLOBIN CONCENTRATION [3]: 37.27 G/DL
MEAN CORPUSCULAR VOLUME [3]: 62.93 fL
MONOCYTE [3]: 2%
NEUTROPHIL [3]: 7%
NUCLEATED RED BLOOD CELLS [3]: 0 /100WBC
PLATELET COUNT [3]: 1292.33 x10E3/uL
ALANINE AMINOTRANSFERASE [3]: 55.33 u/L
ALBUMIN [3]: 3.87 G/DL
ALKALINE PHOSPHATASE [3]: 654.67 u/L
ASPARTATE AMINOTRANSFERASE [3]: 67 u/L
BLOOD UREA NITROGEN [3]: 7.67 mg/dL
CARBON DIOXIDE [3]: 29.33 mmol/L
CHLORIDE [3]: 99.67 MEQ/L
CHOLESTEROL [3]: 14 mg/dL
CREATINE PHOSPHOKINASE [3]: 271.33 u/L
CREATININE [3]: 0.13 mg/dL
GLUCOSE [3]: 125.67 mg/dL
LACTATE DEHYDROGENASE [3]: 192.67 u/L
LIPASE [3]: 7.67 u/L
POTASSIUM [3]: 5.37 MEQ/L
SODIUM [3]: 145.23 MEQ/L
TOTAL BILIRUBIN [3]: 0.2 mg/dL
TOTAL PROTEIN [3]: 6.67 G/DL
URIC ACID [3]: 0.3 mg/dL
